From patent US20130131136A1, “NOVEL METHODS FOR PREDICTING THE RESPONSIVENESS OF A PATIENT AFFECTED WITH A TUMOR TO A TREATMENT WITH A TYROSINE KINASE INHIBITOR” (priority 2010, published 2013)

How the values were obtained:
[1] = system: advanced metastatic renal cell clear cell carcinoma; assay: Sutent treatment of patients with advanced metastatic renal cell clear cell carcinoma, response after the 3 months therapy course (RECIST criteria); type: in vivo, human; details: of 50 patients analyzed, 50 mg/day for 4 weeks followed by 2 weeks off
Experimental: All patients were diagnosed with advanced metastatic renal cell clear cell carcinoma and subjected to surgery for removal of the primary tumor. The tumor tissue was fixed in formaldehyde, and embedded in paraffin. Sections were cut and stained for the FSH receptor using the monoclonal antibody FSHR323, followed by a secondary HRP- or Alexa555-coupled antibody. The density of vessels in the tumor tissue was determined by microscopy using a 20× objective. Starting at the border between the normal and the tumor tissue and moving towards the interior of the tumor, digital photographs were taken of every other field. The number of FSHR-positive vessels in each image was counted in 20 images from each tumor.
The patients were subjected to Sutent treatment for >=3 months with a dose of 50 mg/day for 4 weeks followed by 2 weeks off. Depending on the effects of the treatment, at the end of the 3 months therapy course the patients were designated as “responsive”, “stable” or “non-responsive” according to the criteria described in [Eisenhauer et al., 2009]. The patients were categorized as “responsive” if there was at least a 30% decrease in the sum of the diameters of the lesions, and “non-responsive” if the sum of the lesion sizes increased by at least 20%.

[2] = system: metastatic renal cell carcinoma (mRCC); details: cited from earlier work
[3] = system: RCC; details: BEV alone; cited from earlier work

Molecule | number of patients "non-responsive" (sum of the lesion sizes increased by at least 20%) [1] [patients] | number of patients "responsive" (at least 30% decrease in the sum of the diameters of the lesions) [1] [patients] | number of patients "stable" [1] [patients] | fraction of RCC patients who respond to the treatment ([2]; RCC patients) | reduction of the risk of relapse (progression-free survival) ([2]; first-line therapy, mRCC, compared to interferon-α) [%] | adverse side effects ([2]; patients, typical treatment session 3 months) | activity in patients with RCC [3]
CCN(CC)CCNC(=O)c1c(C)[nH]c(/C=C2\C(=O)Nc3ccc(F)cc32)c1C [Sutent, N-[2-(diethylamino)ethyl]-5-[(Z)-(5-fluoro-1,2-dihydro-2-oxo-3H-indol-3-ylidine)methyl]-2,4-dimethyl-1H-pyrrole-3 carboxamide] | 17 | 15 | 18 | about one third | 58 | significant adverse side effects | 
BEV: a monoclonal humanized antibody against circulating VEGF |  |  |  |  |  |  | showed activity only as second-line treatment and only in cytokine-refractory patients
